Experimental data taken from patent US20240150356A1, “Pyrimidine amide compounds and use thereof” (ALPHALA CO., LTD., priority 2019, published 2024).

Tested on: Hep3B cells (hepatocellular carcinoma cell line)
Assay: In vitro MTS cell viability assay (NCI-60 methodology), Hep3B
Format: cell-based
Settings: Homo sapiens, 48 h, Table 5, MTS, 2 days drug incubation, 50% reduction vs time zero, read-out: Hep3B LC50
How it was run: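 Hep3B cells given five 2-fold dilutions of compound for 2 days, with viability by MTS measured at time zero and at end. LC50 is the concentration giving a 50% fall in viable cells relative to the start of treatment, per NCI-60 formula.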

| Compound | LC50 |
| --- | --- |
| Cc1noc(C)c1-c1nc(NC(=O)c2ccc([N+](=O)[O-])s2)c2cnn(-c3ccccc3)c2n1 [Compound 5-21, N-(6-(3,5-dimethylisoxazol-4-yl)-1-phenyl-1H-pyrazolo[3,4-d]pyrimidin-4-yl)-5-nitrothiophene-2-carboxamide] | 760 nM |
| O=C(Nc1nc(-n2ccc(C(F)(F)F)n2)nc2c1cnn2-c1ccccc1)c1ccc([N+](=O)[O-])s1 [Compound 5-22, 5-nitro-N-(1-phenyl-6-(3-(trifluoromethyl)-1H-pyrazol-1-yl)-1H-pyrazolo[3,4-d]pyrimidin-4-yl)thiophene-2-carboxamide] | 380 nM |
| O=C(Nc1nc(-c2ccccc2)nc2c1cnn2-c1ccccc1)c1ccc([N+](=O)[O-])s1 [Compound 5-23, N-(1,6-diphenyl-1H-pyrazolo[3,4-d]pyrimidin-4-yl)-5-nitrothiophene-2-carboxamide] | 430 nM |
| O=C(Nc1nc(-c2cncnc2)nc2c1cnn2-c1ccccc1)c1ccc([N+](=O)[O-])s1 [Compound 5-24, 5-nitro-N-(1-phenyl-6-(pyrimidin-5-yl)-1H-pyrazolo[3,4-d]pyrimidin-4-yl)thiophene-2-carboxamide] | 960 nM |
| O=C(Nc1nc(-c2ccccc2F)nc2c1cnn2-c1ccccc1)c1ccc([N+](=O)[O-])s1 [Compound 5-25, N-(6-(2-fluorophenyl)-1-phenyl-1H-pyrazolo[3,4-d]pyrimidin-4-yl)-5-nitrothiophene-2-carboxamide] | 460 nM |
| O=C(Nc1nc(-c2cccc(F)c2)nc2c1cnn2-c1ccccc1)c1ccc([N+](=O)[O-])s1 [Compound 5-26, N-(6-(3-fluorophenyl)-1-phenyl-1H-pyrazolo[3,4-d]pyrimidin-4-yl)-5-nitrothiophene-2-carboxamide] | 410 nM |
| O=C(Nc1nc(-c2ccc(F)cc2)nc2c1cnn2-c1ccccc1)c1ccc([N+](=O)[O-])s1 [Compound 5-27] | 270 nM |
| Cc1ccc(-c2nc(NC(=O)c3ccc([N+](=O)[O-])s3)c3cnn(-c4ccccc4)c3n2)cn1 [Compound 5-34, N-(6-(6-methylpyridin-3-yl)-1-phenyl-1H-pyrazolo[3,4-d]pyrimidin-4-yl)-5-nitrothiophene-2-carboxamide] | 850 nM |
| COc1ccc(-c2nc(NC(=O)c3ccc([N+](=O)[O-])s3)c3cnn(-c4ccccc4)c3n2)cc1 [Compound 5-36, N-(6-(4-methoxyphenyl)-1-phenyl-1H-pyrazolo[3,4-d]pyrimidin-4-yl)-5-nitrothiophene-2-carboxamide] | 600 nM |
| CC(C)(C)c1ccc(-c2nc(NC(=O)c3ccc([N+](=O)[O-])s3)c3cnn(-c4ccccc4)c3n2)cc1 [Compound 5-37, N-(6-(4-(tert-butyl)phenyl)-1-phenyl-1H-pyrazolo[3,4-d]pyrimidin-4-yl)-5-nitrothiophene-2-carboxamide] | 780 nM |
| O=C(Nc1nc(-c2cccc(C(F)(F)F)c2)nc2c1cnn2-c1ccccc1)c1ccc([N+](=O)[O-])s1 [Compound 5-38, 5-nitro-N-(1-phenyl-6-(3-(trifluoromethyl)phenyl)-1H-pyrazolo[3,4-d]pyrimidin-4-yl)thiophene-2-carboxamide] | 450 nM |
| CN(C)c1cccc(-c2nc(NC(=O)c3ccc([N+](=O)[O-])s3)c3cnn(-c4ccccc4)c3n2)c1 [Compound 5-41, N-(6-(3-(dimethylamino)phenyl)-1-phenyl-1H-pyrazolo[3,4-d]pyrimidin-4-yl)-5-nitrothiophene-2-carboxamide] | 450 nM |
| O=C(Nc1nc(-c2ccc(N3CCOCC3)nc2)nc2c1cnn2-c1ccccc1)c1ccc([N+](=O)[O-])s1 [Compound 5-43, N-(6-(6-morpholinopyridin-3-yl)-1-phenyl-1H-pyrazolo[3,4-d]pyrimidin-4-yl)-5-nitrothiophene-2-carboxamide] | 570 nM |
| O=C(Nc1nc(-c2ccc(Cl)c(F)c2)nc2c1cnn2-c1ccccc1)c1ccc([N+](=O)[O-])s1 [Compound 5-46, N-(6-(4-chloro-3-fluorophenyl)-1-phenyl-1H-pyrazolo[3,4-d]pyrimidin-4-yl)-5-nitrothiophene-2-carboxamide] | 240 nM |
| O=C(Nc1nc(-c2ccc(Cl)c(Cl)c2)nc2c1cnn2-c1ccccc1)c1ccc([N+](=O)[O-])s1 [Compound 5-48, N-(6-(3,4-dichlorophenyl)-1-phenyl-1H-pyrazolo[3,4,d]pyrimidin-4-yl)-5-nitrothiophene-2-carboxamide] | 410 nM |
| O=C(Nc1nc(-c2cc(C(F)(F)F)ccc2F)nc2c1cnn2-c1ccccc1)c1ccc([N+](=O)[O-])s1 [Compound 5-50, N-(6-(2-fluoro-5-(trifluoromethyl)phenyl)-1-phenyl-1H-pyrazolo[3,4-d]pyrimidin-4-yl)-5-nitrothiophene-2-carboxamide] | 350 nM |
| O=C(Nc1nc(-c2ccc(C(F)(F)F)cc2F)nc2c1cnn2-c1ccccc1)c1ccc([N+](=O)[O-])s1 [Compound 5-51, N-(6-(2-fluoro-4-(trifluoromethyl)phenyl)-1-phenyl-1H-pyrazolo[3,4-d]pyrimidin-4-yl)-5-nitrothiophene-2-carboxamide] | 370 nM |
| O=C(Nc1nc(-c2ccc(C(F)(F)F)c(F)c2)nc2c1cnn2-c1ccccc1)c1ccc([N+](=O)[O-])s1 [Compound 5-52, N-(6-(3-fluoro-4-(trifluoromethyl)phenyl)-1-phenyl-1H-pyrazolo[3,4-d]pyrimidin-4-yl)-5-nitrothiophene-2-carboxamide] | > 1250 nM |
| O=C(Nc1nc(-c2cc(F)c(F)c(F)c2)nc2c1cnn2-c1ccccc1)c1ccc([N+](=O)[O-])s1 [Compound 5-53, 5-nitro-N-(1-phenyl-6-(3,4,5-trifluorophenyl)-1H-pyrazolo[3,4-d]pyrimidin-4-yl)thiophene-2-carboxamide] | > 1250 nM |
| COCCOc1ccc(-c2nc(NC(=O)c3ccc([N+](=O)[O-])s3)c3cnn(-c4ccccc4)c3n2)cn1 [Compound 5-54, N-(6-(6(2-methoxyethoxy)pyridin-3-yl)-1-phenyl-1H-pyrazolo[3,4-d]pyrimidin-4-yl)-5-nitrothiophene-2-carboxamide] | 340 nM |
| CCOCCOc1ccc(-c2nc(NC(=O)c3ccc([N+](=O)[O-])s3)c3cnn(-c4ccccc4)c3n2)cn1 [Compound 5-55, N-(6-(6-(2-ethoxyethoxy)pyridin-3-yl)-1-phenyl-1H-pyrazolo[3,4-d]pyrimidin-4-yl)-5-nitrothiophene-2-carboxamide] | 490 nM |
| CCOCCOCCOc1ccc(-c2nc(NC(=O)c3ccc([N+](=O)[O-])s3)c3cnn(-c4ccccc4)c3n2)cn1 [Compound 5-57, N-(6-(6-(2-(2-ethoxyethoxy)ethoxy)pyridin-3-yl)-1-phenyl-1H-pyrazolo[3,4-d]pyrimidin-4-yl)-5-nitrothiophene-2-carboxamide] | 790 nM |

Same assay, conditions: Homo sapiens, 48 h, Table 6, MTS, 2 days drug incubation, 50% reduction vs time zero, read-out: Hep3B LC50

| Compound | LC50 |
| --- | --- |
| Cc1ccccc1-n1ncc2c(NC(=O)c3ccc([N+](=O)[O-])s3)nc(N3CCC[C@H]3CO)nc21 [Compound 6-1, (S)—N-(6-(2-(hydroxymethyl)pyrrolidin-1-yl)-1-(o-tolyl)-1H-pyrazolo[3,4-d]pyrimidin-4-yl)-5-nitrothiophene-2-carboxamide] | > 3000 nM |
| Cc1ccccc1-n1ncc2c(NC(=O)c3ccc([N+](=O)[O-])s3)nc(-c3ccc(F)nc3)nc21 [Compound 6-2] | > 3000 nM |
| Cc1ccc(-n2ncc3c(NC(=O)c4ccc([N+](=O)[O-])s4)nc(N4CCC[C@H]4CO)nc32)cc1 [Compound 6-3, (S)—N-(6-(2-(hydroxymethyl)pyrrolidin-1-yl)-1-(p-tolyl)-1H-pyrazolo[3,4-d]pyrimidin-4-yl)-5-nitrothiophene-2-carboxamide] | 870 nM |
| COc1ccc(-c2nc(NC(=O)c3ccc([N+](=O)[O-])s3)c3cnn(-c4ccc(C)cc4)c3n2)cn1 [Compound 6-6, N-(6-(6-methoxypyridin-3-yl)-1-(p-tolyl)-1H-pyrazolo[3,4-d]pyrimidin-4-yl)-5-nitrothiophene-2-carboxamide] | 400 nM |
| Cc1ccc(-n2ncc3c(NC(=O)c4ccc([N+](=O)[O-])s4)nc(-c4ccc(Cl)cc4)nc32)cc1 [Compound 6-7] | 290 nM |
| Cc1ccc(-n2ncc3c(NC(=O)c4ccc([N+](=O)[O-])s4)nc(-c4ccc(C(F)(F)F)cc4)nc32)cc1 [Compound 6-8, 5-nitro-N-(1-(p-tolyl)-6-(4-(trifluoromethyl)phenyl)-1H-pyrazolo[3,4-d]pyrimidin-4-yl)thiophene-2-carboxamide] | 350 nM |
| Cc1ccc(-n2ncc3c(NC(=O)c4ccc([N+](=O)[O-])s4)nc(-c4ccc5c(c4)OCO5)nc32)cc1 [Compound 6-9] | 400 nM |
| Cc1ccc(-n2ncc3c(NC(=O)c4ccc([N+](=O)[O-])s4)nc(-c4ccc5c(c4)OCCO5)nc32)cc1 [Compound 6-10, N-(6-(2,3-dihydrobenzo[b][1,4]dioxin-6-yl)-1-(p-tolyl)-1H-pyrazolo[3,4-d]pyrimidin-4-yl)-5-nitrothiophene-2-carboxamide] | 620 nM |
| COCCOc1ccc(-c2nc(NC(=O)c3ccc([N+](=O)[O-])s3)c3cnn(-c4ccc(C)cc4)c3n2)cn1 [Compound 6-12, N-(6-(6-(2-methoxyethoxy)pyridin-3-yl)-1-(p-tolyl)-1H-pyrazolo[3,4-d]pyrimidin-4-yl)-5-nitrothiophene-2-carboxamide] | 260 nM |
| CCOCCOc1ccc(-c2nc(NC(=O)c3ccc([N+](=O)[O-])s3)c3cnn(-c4ccc(C)cc4)c3n2)cn1 [Compound 6-13, N-(6-(6-(2-ethoxyethoxy)pyridin-3-yl)-1-(p-tolyl)-1H-pyrazolo[3,4-d]pyrimidin-4-yl)-5-nitrothiophene-2-carboxamide] | 510 nM |
| CCOCCOCCOc1ccc(-c2nc(NC(=O)c3ccc([N+](=O)[O-])s3)c3cnn(-c4ccc(C)cc4)c3n2)cn1 [Compound 6-14] | 220 nM |
| COc1ccc(-n2ncc3c(NC(=O)c4ccc([N+](=O)[O-])s4)nc(NC4CCCCC4)nc32)cc1 [Compound 6-15, N-(6-(cyclohexylamino)-1-(4-methoxyphenyl)-1H-pyrazolo[3,4-d]pyrimidin-4-yl)-5-nitrothiophene-2-carboxamide] | > 1250 nM |
